Results on twelve compounds are retold here after patent publication US20230257393A1, “MACROMOLECULE-SUPPORTED THIENOAZEPINE COMPOUNDS, AND USES THEREOF” (BOLT BIOTHERAPEUTICS, INC., priority 2020, published 2023).

Experiment [1] deals with T1, human TLR7 (Homo sapiens, UniProt Q9NYK1).
T1 construct: host or cells: HEK293 reporter cells
T1 sequence (Q9NYK1 27-1049): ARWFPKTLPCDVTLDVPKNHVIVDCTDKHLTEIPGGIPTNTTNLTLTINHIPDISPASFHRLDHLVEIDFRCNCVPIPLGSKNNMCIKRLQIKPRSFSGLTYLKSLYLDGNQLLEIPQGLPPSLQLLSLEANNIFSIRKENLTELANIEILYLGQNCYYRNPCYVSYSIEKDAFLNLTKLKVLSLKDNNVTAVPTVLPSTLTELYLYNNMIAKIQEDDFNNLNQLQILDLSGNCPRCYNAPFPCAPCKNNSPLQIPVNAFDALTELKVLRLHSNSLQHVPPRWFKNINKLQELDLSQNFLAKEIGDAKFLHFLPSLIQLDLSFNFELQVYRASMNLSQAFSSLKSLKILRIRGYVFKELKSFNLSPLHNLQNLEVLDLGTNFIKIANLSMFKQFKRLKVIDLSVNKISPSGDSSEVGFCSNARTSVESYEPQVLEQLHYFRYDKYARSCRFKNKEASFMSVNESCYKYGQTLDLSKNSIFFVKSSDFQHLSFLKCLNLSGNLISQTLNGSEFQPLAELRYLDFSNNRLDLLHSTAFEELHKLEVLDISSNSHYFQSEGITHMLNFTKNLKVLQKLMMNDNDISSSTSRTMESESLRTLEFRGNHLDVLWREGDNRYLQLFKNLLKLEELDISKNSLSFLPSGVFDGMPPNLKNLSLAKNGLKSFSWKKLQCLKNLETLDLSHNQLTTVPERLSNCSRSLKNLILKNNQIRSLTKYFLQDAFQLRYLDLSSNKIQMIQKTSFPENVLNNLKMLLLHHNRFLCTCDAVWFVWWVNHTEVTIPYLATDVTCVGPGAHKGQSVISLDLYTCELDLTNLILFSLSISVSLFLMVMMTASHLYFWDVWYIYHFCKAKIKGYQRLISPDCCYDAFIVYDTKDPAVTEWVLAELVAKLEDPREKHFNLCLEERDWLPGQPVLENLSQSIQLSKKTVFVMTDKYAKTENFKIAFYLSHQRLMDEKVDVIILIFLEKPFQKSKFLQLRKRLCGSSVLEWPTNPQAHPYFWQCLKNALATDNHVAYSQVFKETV
Description: HEK Reporter Assay, HEK293 NFKB reporter cells expressing human TLR7. In kind it is cell-based. The following applies: Table 1c, read-out: HEK293 hTLR7 EC50. How it is done:
(§1) Each compound was synthesized, purified, and characterized by mass spectrometry and shown to have the mass indicated. Additional experimental procedures are found in the Examples. Activity against HEK293 NFKB reporter cells expressing human TLR7 or human TLR8 was measured according to Example 202.
(§2) HEK293 reporter cells expressing human TLR7 or human TLR8 were purchased from Invivogen and vendor protocols were followed for cellular propagation and experimentation. Briefly, cells were grown to 80-85% confluence at 5% CO2 in DMEM supplemented with 10% FBS, Zeocin, and Blasticidin. Cells were then seeded in 96-well flat plates at 4×10^4 cells/well with substrate containing HEK detection medium and immunostimulatory molecules. Activity was measured using a plate reader at 620-655 nm wavelength.
For orientation: Reporter assays use an easily measured gene product as a stand-in for the process of interest.

The target in experiment [2] is T2, human TLR8 (Homo sapiens, UniProt Q9NR97).
T2 construct: host or cells: HEK293 reporter cells
T2 sequence (Q9NR97 27-1041): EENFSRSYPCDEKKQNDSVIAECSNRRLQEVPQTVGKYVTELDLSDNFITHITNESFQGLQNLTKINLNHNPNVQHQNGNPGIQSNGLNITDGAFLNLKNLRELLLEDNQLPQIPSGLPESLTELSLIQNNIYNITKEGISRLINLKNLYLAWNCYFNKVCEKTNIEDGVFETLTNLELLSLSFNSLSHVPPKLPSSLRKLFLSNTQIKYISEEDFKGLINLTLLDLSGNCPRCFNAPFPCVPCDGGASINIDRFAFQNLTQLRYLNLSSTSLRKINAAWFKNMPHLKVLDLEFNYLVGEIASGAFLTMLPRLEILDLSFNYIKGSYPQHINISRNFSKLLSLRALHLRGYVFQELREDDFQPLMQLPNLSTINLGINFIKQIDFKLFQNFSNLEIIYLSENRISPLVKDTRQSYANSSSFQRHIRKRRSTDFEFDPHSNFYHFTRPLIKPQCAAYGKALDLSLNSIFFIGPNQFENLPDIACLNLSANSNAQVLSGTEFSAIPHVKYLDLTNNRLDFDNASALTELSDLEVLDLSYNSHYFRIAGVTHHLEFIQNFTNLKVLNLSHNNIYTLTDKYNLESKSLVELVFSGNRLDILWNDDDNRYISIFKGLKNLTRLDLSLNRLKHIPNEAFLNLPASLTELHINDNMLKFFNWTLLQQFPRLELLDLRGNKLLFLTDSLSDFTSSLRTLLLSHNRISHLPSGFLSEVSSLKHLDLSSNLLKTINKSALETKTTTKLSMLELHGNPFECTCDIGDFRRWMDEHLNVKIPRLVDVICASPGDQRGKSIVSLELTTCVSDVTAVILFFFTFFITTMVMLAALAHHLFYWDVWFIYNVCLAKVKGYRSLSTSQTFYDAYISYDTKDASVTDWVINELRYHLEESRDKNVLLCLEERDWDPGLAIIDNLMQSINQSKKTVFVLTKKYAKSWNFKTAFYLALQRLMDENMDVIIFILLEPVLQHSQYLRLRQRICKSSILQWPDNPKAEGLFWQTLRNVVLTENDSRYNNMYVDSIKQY
Description: HEK Reporter Assay, HEK293 NFKB reporter cells expressing human TLR8. In kind it is cell-based. The note with it: Table 1c, read-out: HEK293 hTLR8 EC50. On the procedure: as §1, §2

With `CN(C)Cc1ccc(CN(CCC(F)(F)F)C(=O)C2=Cc3sc(CCCCCN)cc3N=C(N)C2)cc1` [TAZ-117], the EC50 in experiment [1] and in experiment [2] was at least 9 µM each time.
Regarding `CCCN(CCC)C(=O)C1=Cc2sc(CC(=O)NCCN)cc2N=C(N)C1` [TAZ-120], the 50% effective concentration (EC50) in experiment [1] and in experiment [2] was at least 9 µM each time.
`CCCN(Cc1cnc(CN(C)C)c(C(F)(F)F)c1)C(=O)C1=Cc2sc(CCCCCNC(=O)OC(C)(C)C)cc2N=C(N)C1` [TAZ-128]: the EC50 in experiment [1] and in experiment [2] was at least 9 µM each time.
Take `CCCN(Cc1ccc(CN(C)C)c(C(F)(F)F)n1)C(=O)C1=Cc2sc(CCCCCNC(=O)OC(C)(C)C)cc2N=C(N)C1` [TAZ-146]: the EC50 in experiment [1] and in experiment [2] was at least 9 µM throughout.
As to `CCCN(CCCNC(=O)OC1CCC1)C(=O)C1=Cc2sc(C#CC3CNC3)cc2N=C(N)C1` [TAZ-192], the values for the EC50 in experiment [1] and in experiment [2] were 0.824 µM and 3.48 µM, respectively.
On the same counts, the results for `CCCN(OCC)C(=O)C1=Cc2sc(C#CC3CNC3)cc2N=C(N)C1` [TAZ-193] are 3.36 µM and 1.52 µM.
On the same counts, the results for `CCCN(OCC)C(=O)C1=Cc2sc(CN3CCN(c4ccc(C(=O)OC(C)(C)C)cc4)CC3)cc2N=C(N)C1` [TAZ-205] are at least 9 µM and at least 9 µM.
`CCCN(OCC)C(=O)C1=Cc2sc(CN3CC4(CNC4)C3)cc2N=C(N)C1` [TAZ-207]: the EC50 in experiment [1] and in experiment [2] was at least 9 µM in each case.
Regarding `CCCN(OCC)C(=O)C1=Cc2sc(CN3CCCN(C(=O)OC(C)(C)C)CC3)cc2N=C(N)C1` [TAZ-226], the EC50 (as a rule, the concentration giving half of the maximal effect) in experiment [1] worked out at 0.436 µM; in experiment [2], 4.43 µM.
On the same counts, the results for `CCCN(OCC)C(=O)C1=Cc2sc(CN3CCC(c4ccc(C(=O)OC)cc4)CC3)cc2N=C(N)C1` [TAZ-229] are at least 9 µM and at least 9 µM.
On the same counts, the results for `CCCN(OCC)C(=O)C1=Cc2sc(CN3C[C@H]4C[C@@H]3CN4)cc2N=C(N)C1` [TAZ-235] are 4.57 µM and 3.05 µM.
Taken in the same sequence, the figures for `CCONC(=O)C1=Cc2sc(CC3CNC3)cc2N=C(N)C1` [TAZ-250] were at least 9 µM and at least 9 µM.
